One assay has as its system gastric secretion. The assay can be described thus: Gastric secretion inhibitory activity of intermediate compounds (test not specified). The text has this:
Thus, such intermediate compounds are deemed to constitute part of this invention.

Assay [1] relates to histamine evoked gastric secretion. The assay can be described thus: Inhibition of histamine evoked gastric secretion in dogs with a chronic gastric fistula. It is filed as in vivo, female beagle dogs. The conditions noted are these: Canis lupus familiaris, iv, 0.5 h, read-out: IV ED50 (mg/kg) Total acid output. The procedure: […] Studies are performed in female beagle dogs with a chronic gastric fistula. The test compounds are administered i.v. at 0 min. Gastric secretion is stimulated by administration of a maximal secretory dose of histamine dihydrochloride ([…], base, s.c.) at 0 min. Gastric output is collected by gravity drainage for three 30 min periods (0-30, 30-60 and 60-90 min). Output volume (ml) is measured and an aliquot is titrated to pH 7 to determine acid concentration (titratable acid mEq/L); total acid output (mEq) is calculated as the product of volume and acid concentration. […]. Percent.inhibition of volume, acid concentration and total acid output is calculated relative to a placebo trial in the same animals; ED50 values are determined by linear regression analysis.

SMILES strings stand for the structures.

For the molecule `CCOC1=NS(=O)(=O)N=C1NCCSCc1ccc(CN(C)C)o1` [3-N-[2-[(5-dimethylaminomethyl-2-furanyl)methylthio]ethyl]amino-4-ethoxy-1,2,5-thiadiazde-1,1-dioxide], the “gastric secretion inhibitory activity” value with gastric secretion was “substantial gastric secretion inhibitory activity”.
Still for that read-out and setting: the entry for `CCOc1n[s+]([O-])nc1NCCSCc1ccc(CN(C)C)o1` (stereo not shown) [3-N-[2-[(5-dimethylaminomethyl-2-furanyl)methylthio]ethyl]amino-4-ethoxy-1,2,5-thiadiazole-1-oxide] is “substantial gastric secretion inhibitory activity”.
In the case of `CN(C)Cc1ccc(CSCCNc2n[nH]c(N)n2)o1` [C, 3-N-[2-[(5-Dimethylaminomethyl-2-furanyl)methylthio]ethyl]amino-5-amino-1,2,4-triazole], in assay [1], the ED50 was 1.1 mg/kg.
Same read-out and setting: the figure for `CNC(=NCCSCc1[nH]cnc1C)NC#N` [D, N-Cyano-N'-methyl-N''-[2-((4-methyl-5-imidazolyl)methylthio)ethyl]guanidine] is 1.8 mg/kg.
